One data set concerns the target T1, CYP3A4 (Homo sapiens, UniProt P08684).
T1 construct: Add 200 μL of 0.2 mg/mL HLM to the assay wells; from tissue; host or cells: liver microsomes (HLM)
Put plainly: Inhibition of CYP enzyme (CYP3A4, midazolam substrate, HLM). It counts as in vitro ADME. The method, then:
1. Preheat 0.1 M potassium phosphate buffer (K-buffer), pH 7.4:
100 mM K-Buffer: mix 9.5 mL Stock A into 40.5 mL Stock B, bring total volume to 500 mL with Milli-Q water, titrate the buffer with KOH or H3PO4 to pH 7.4.
Stock A (1 M monobasic potassium phosphate): 136.5 g of monobasic potassium phosphate in 1 L of Milli-Q water.
Stock B (1 M dibasic potassium phosphate): 174.2 g of dibasic potassium phosphate in 1 L of Milli-Q water.
2. Prepare serial dilution for test compounds and reference inhibitors (400×) in a 96-well plate:
2.1 Transfer 8 μL of 10 mM test compounds to 12 μL of ACN.
2.2 Prepare individual inhibitor spiking solution for reference: 8 μL of DMSO stock to 12 μL of ACN.
2.3 Prepare 1:3 serial dilutions in DMSO:ACN mixture (v/v: 40:60).
3. Prepare 4×NADPH cofactor (66.7 mg NADPH in 10 mL 0.1 M K-buffer, pH7.4).
4. Prepare 4×substrate (2 mL for each isoform) as indicated in the table below (add HLM where required on ice).
5. Prepare 0.2 mg/mL HLM solution (10 μL of 20 mg/mL to 990 μL of 0.1 M K-buffer) on ice.
6. Add 200 μL of 0.2 mg/mL HLM to the assay wells and then add 1 μL of test compounds or reference compounds into the designated wells on ice.
7. Add following solutions (in duplicate) in a 96-well assay plate on ice:
7.1 Add 30 μL of 2×test compounds and reference compound in 0.2 mg/mL HLM solution;
7.2 Add 15 μL of 4×substrate solution.
8. […]

Data set [1] can be described thus: Potency compared with the existing dezocine (statement, no method given).
Data set [2] is described as follows: Solubility test at room temperature. It counts as physicochemical. The note with it: room temperature, shaken 24 h. The method, then: The solubility of the crystal form A, the crystal form C and the free base in 0.1 M HCL, pH 4.5, or pH 6.8 buffer or water was tested at room temperature. In the test, the standard curves of the crystal form A, the crystal form C and the free base were plotted respectively. Subsequently, a appropriate amount of the crystal form A, the crystal form C and the free base was weighed respectively, to which was added a appropriate amount of solvent. The mixture was shaken at room temperature for 24 h, centrifuged. The supernatant was taken and the solubility was determined. The results are shown in Table 7, (the concentration unit is mg/mi).

Data set [3] can be described thus: Stability test of free base, crystal form A and crystal form C (content and related substance). It counts as physicochemical. To be noted: 5° C. The method, then: The crystal form and purity change were measured respectively on 3rd and 7th day. The results are shown in Table 6, FIGS. 22, 23, 24 and 25. […]
For data set [4], the target named is T2, hERG potassium ion channel (Homo sapiens, UniProt Q12809).
T2 construct: host or cells: CHO cells stably expressing hERG
T2 sequence (Q12809 whole entry): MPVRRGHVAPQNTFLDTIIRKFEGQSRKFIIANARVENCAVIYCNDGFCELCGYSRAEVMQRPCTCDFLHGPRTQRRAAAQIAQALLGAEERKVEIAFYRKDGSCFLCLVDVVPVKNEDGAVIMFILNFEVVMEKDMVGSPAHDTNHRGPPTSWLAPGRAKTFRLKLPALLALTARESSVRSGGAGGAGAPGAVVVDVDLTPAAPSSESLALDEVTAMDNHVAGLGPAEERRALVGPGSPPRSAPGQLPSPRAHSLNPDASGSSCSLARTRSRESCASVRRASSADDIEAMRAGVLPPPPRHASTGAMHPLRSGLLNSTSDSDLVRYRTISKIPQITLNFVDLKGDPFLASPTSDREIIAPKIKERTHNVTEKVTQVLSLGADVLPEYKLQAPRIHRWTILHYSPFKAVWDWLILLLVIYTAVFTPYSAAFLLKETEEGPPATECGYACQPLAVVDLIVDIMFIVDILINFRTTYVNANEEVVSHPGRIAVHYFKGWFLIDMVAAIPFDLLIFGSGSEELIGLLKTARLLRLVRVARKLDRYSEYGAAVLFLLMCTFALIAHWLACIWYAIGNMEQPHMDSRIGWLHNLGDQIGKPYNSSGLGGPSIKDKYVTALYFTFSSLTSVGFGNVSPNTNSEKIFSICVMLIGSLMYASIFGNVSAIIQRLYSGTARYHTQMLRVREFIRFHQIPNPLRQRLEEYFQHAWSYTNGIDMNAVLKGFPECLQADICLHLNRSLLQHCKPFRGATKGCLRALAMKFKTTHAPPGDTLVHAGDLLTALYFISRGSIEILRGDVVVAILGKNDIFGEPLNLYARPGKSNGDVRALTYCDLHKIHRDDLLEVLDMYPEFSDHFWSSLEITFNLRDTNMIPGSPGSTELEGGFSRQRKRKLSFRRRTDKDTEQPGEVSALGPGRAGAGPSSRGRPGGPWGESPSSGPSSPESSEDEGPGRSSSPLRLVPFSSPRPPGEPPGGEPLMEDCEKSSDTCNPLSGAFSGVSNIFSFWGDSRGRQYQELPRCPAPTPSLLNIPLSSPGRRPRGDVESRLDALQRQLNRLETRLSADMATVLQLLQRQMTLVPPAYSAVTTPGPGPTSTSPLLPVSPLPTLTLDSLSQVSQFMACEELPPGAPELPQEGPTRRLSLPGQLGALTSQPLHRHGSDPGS
Put plainly: Inhibition of hERG potassium ion channel, manual whole-cell patch clamp in CHO hERG cells. The format is cell-based. The method, then:
2.1.1 Cells used in this experiment are CHO cell lines (supplied by Sophion Bioscience, Denmark) which are hERG cDNA transfectant and stably express hERG channels, cell progeny is P15. Cells are cultured in medium containing the following ingredients Invitrogen): Ham's F12 medium, 10% (v/v) inactivated fetal bovine serum, […] hygromycin B, […] Geneticin.
2.1.2 CHO hERG cells were grown in Petri dishes containing the above medium and cultured in an incubator containing 5% CO2 at 37° C. […]
In this experiment, whole-cell current recording was performed using a manual patch clamp system (HEKA EPC-10 signal amplification and digital conversion system, purchased from HEKA Electronic, Germany) The round glass slide of which surface CHO hERG cells were grown on was placed in an electrophysiological recording slot under an inverted microscope. […] The hERG potassium current recorded in the above steps should be superfused for test drug after the steady perfusion state of the extracellular fluid in the recording slot is stabilized until the inhibition of the hERG current by the drug reached a steady state. […]
The test data were analyzed by the data analysis software provided by HEKA Patchmaster (V2x73.2), Microsoft Excel and Graphpad Prism 5.0.

The nature of data set [5]: In vivo test of rats: pharmacokinetics after oral administration. To be noted: male, SD, rat, 10 mg/kg, oral administration of dezocine in rats, dose of dezocine 10mpk. The method, then:
LC-MS/MS method was applied for the determination of the drug concentration in plasma at different times after the example compounds were orally administered to rats in order to study the pharmacokinetic behavior of the compounds of the invention in vivo in rats and evaluate their pharmacokinetic characteristics.
Test Animals: healthy Adult male SD rats (weight 200-300 g, 3, fasted), provided by SLAC company;
Administration and Dosage: (16 mg/kg or 24 mg/kg, 10 mL/kg, 5% 1,2-propanediol (1,2-Propanediol, Shanghai Titan Technology Co., Ltd. Lot No.: P1057349)) was administered via oral gavage to SD rats;
Blood collection: firstly, the animals which were selected to meet the test requirements prior to administration were weighed. The rats were bound before the blood collection, blood from each administered rat was taken at predetermined time points, (blood was collected at 0.083, 0.25, 0.5, 1, 2, 4, 6, 8 h before and after administration respectively, 9 time points in total), about 150 μl of blood was collected via orbital vein. Blood was transferred to a 1.5 ml tube to which K2EDTA was added previously. The collected blood sample was put on ice, and centrifuged to obtain plasma sample (2000 g, 5 min under 4° C.) within 15 minutes. All the plasma samples were stored at approximately −70° C. until analysis.
LC/MS/MS method was applied to determine the concentrations of the drug. […]

For data set [6] the following is noted: background statement, cited from earlier work.
For a further data set, the target named is δ opioid receptors (Homo sapiens, UniProt P41143). To be noted: background statement; cited from earlier work.
Chain of δ opioid receptors (P41143 whole entry): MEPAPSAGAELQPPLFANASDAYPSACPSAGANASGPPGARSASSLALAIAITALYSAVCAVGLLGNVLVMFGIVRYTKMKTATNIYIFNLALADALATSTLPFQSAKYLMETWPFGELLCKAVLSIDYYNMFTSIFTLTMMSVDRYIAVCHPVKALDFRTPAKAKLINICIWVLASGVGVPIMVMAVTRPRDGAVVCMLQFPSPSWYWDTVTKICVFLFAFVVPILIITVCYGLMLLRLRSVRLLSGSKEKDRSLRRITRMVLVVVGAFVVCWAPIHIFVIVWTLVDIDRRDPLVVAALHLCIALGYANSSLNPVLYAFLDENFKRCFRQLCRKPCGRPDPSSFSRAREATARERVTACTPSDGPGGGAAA

Converted amounts (≈) assume the structure as drawn.

T1 sequence (P08684 whole entry): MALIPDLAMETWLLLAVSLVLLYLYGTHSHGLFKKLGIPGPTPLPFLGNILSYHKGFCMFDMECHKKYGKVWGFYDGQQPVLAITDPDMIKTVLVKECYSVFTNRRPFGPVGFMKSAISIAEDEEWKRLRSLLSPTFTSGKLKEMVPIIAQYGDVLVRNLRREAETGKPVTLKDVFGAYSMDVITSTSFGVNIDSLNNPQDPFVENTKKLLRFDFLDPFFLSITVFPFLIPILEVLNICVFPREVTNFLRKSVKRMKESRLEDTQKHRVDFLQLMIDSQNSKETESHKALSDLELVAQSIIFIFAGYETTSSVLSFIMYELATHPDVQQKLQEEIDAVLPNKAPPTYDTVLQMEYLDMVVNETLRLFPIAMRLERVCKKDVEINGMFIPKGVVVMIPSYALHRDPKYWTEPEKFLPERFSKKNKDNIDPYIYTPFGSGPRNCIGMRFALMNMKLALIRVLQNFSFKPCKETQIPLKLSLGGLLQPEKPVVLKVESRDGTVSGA

Regarding `C[C@@]12CCCCC[C@@H](Cc3ccc(OC(=O)NC4COC4)cc31)[C@@H]2N` [free base of Compound X], the “inhibitory activity on CYP3A4 (in words)” value on CYP3A4 (1 μM) is listed as “little inhibitory activity”. Further, at CYP3A4 (human, human liver microsomes, pH 7.4, probe midazolam, substrate midazolam (M), 0.1 mg/mL HLM, read-out: CYP3A4(M) inhibition rate/1 μM), the inhibition at 5 min, 1 μM worked out at 23.8%. Moreover, the “potency compared with the existing dezocine” value in data set [1] is recorded as “increased more than three-fold”. In data set [2] (0.1M HCL), the “Final pH” value is given as 1.30, the phenomenon entry was “Flocculent” and the solubility was 18860 µg/mL (≈ 54.8 mM). In data set [2] (H2O), the “Final pH” value turned out to be 8.61, the phenomenon entry is “turbid” and the solubility came out at 50 µg/mL (≈ 0.145 mM). In data set [2] (pH 4.5 buffer), the “Final pH” value turned out to be 6.41, the phenomenon result was “turbid” and the solubility worked out at 3750 µg/mL (≈ 10.9 mM). In data set [2] (pH 6.8 buffer), the “Final pH” value turned out to be 6.78, the phenomenon result is given as “turbid” and the solubility stood at 2030 µg/mL (≈ 5.89 mM). Moreover, in data set [3] (0 d), the “RRT(%) 0.76 (related substance)” value is on record as 1.19%, the “RRT(%) 1.29 (related substance)” value worked out at 3.35%, the “RRT(%) 1.53 (related substance)” value turned out to be 0.18% and the “RRT(%) 1.59 (related substance)” value is 0.97%. Besides, the “RRT(%) 1.75 (related substance)” value in data set [3] (0 d) is given as 0.43%. Besides, in data set [3] (0 d (control)), the “Area (%)” value was 93.88%, the “Total impurity (%)” value is on record as 6.12% and the character result is “off-white solid”. Moreover, the “inhibitory activity on the hERG potassium ion channel (in words)” value in data set [4] (10 μM) was “little inhibitory activity”. The same compound displayed an inhibition at 10 μM in data set [4] (human, CHO cells stably expressing hERG channels, CHO hERG cells, patch clamp, ~25° C.) of 20.6%.

Turning to `C[C@@]12CCCCC[C@@H](Cc3ccc(O)cc31)[C@@H]2N` [dezocine], in data set [5], the AUC turned out to be 58.6 ng·h/mL. In addition, the oral bioavailability in data set [6] is not above 5%. Further, the “time after which the blood drug concentration falls below the effective level” value in data set [6] (injection) is 2 to 3 h. Besides, the “activity on δ opioid receptors (in words)” value on δ opioid receptors is “very weak”.

These data come from patent US20210087156A1, “PHARMACEUTICALLY ACCEPTABLE SALTS OF BENZODICYCLOALKANE DERIVATIVE, P[…] THEREOF, AND APPLICATION THEREOF” (priority 2018, published 2021).
